Laboratory results reported in US11684557B2, “Preservation compositions” (Conopco, Inc., priority 2018, dated 2023).

Tests used:
[1] = system: Gram negative non-fermenting bacteria; test: Liquid broth assays (MIC and checkerboard), modified ISO 20776-1:2006; type: cell-based; conditions: individual chemical; tryptic soy broth, 30° C., 24 hours, OD600; MIC = <25% growth vs positive growth control
Description: (§1) The differing behaviours of inhibitory antimicrobials in isolation and mixtures have been widely explored using the concept of the Fractional Concentration and Fractional Inhibitory Concentration (FIC). See for instance JRW Lambert and R Lambert, J. Appl. Microbiol 95, 734 (2003); T. Jadavji, C G Prober and R Cheung, Antimicrobial Agents and Chemotherapy 26, 91 (1984), and WO 2004/006876. These parameters can be defined as follows: FC(component a)=Concentration of component a tested in the mixture/MIC(component a tested as a single active) FIC(component a)=MIC(component a tested in the mixture)/MIC(component a tested as a single active)
(§2) These relationships can be expressed mathematically by summing the fractional MIC values for all the components present in the mixture to give the “fractional inhibitory index”: ΣFIC=FIC(component 1)+FIC(component 2)
(§3) Liquid broth assays (MIC and checkerboard) were conducted to identify the minimum concentration(s) of individual and binary combinations of preservation chemicals. A modified methodology to ISO 20776-1:2006 was utilised for the screening as follows. Stock solutions of preservation chemicals and tryptic soy broth were inoculated with 1-5×10^6 microorganisms and incubated at 30° C. for 24 hours, after which optical densities at OD600 nm were measured. Microorganisms used for assessed included Gram negative non-fermenting bacteria: Pseudomonas aeruginosa, Pseudomonas putida & Burkholderia cepacia and Gram negative fermenting bacteria: Enterobacter gergoviae & Klebsiella species. […] Preservation chemicals were screened at a concentration range of 0.0156-2%.

[2] = system: Gram negative fermenting bacteria; test: as above; type: cell-based, Enterobacter gergoviae & Klebsiella species; conditions: individual chemical; tryptic soy broth, 30° C., 24 hours, OD600; MIC = <25% growth vs positive growth control
Description: as §1, §2, §3

Compound | MIC Gram negative non-fermenting bacteria [1] [wt %] | MIC Gram negative fermenting bacteria [2] [wt %]
OCc1ccccc1 [Benzyl alcohol, reference compound] | 0.125 | 0.5
C=C(CC(=O)O)C(=O)O [Itaconic acid] | 0.5 | 0.5
O=C([O-])c1ccccc1.[Na+] [Sodium benzoate] | 1 | 1
